Consider one molecule from article PMC10425210 (The Journal of Clinical Investigation, 2023).

Data set [1] deals with HIV-1. The data set can be described thus: Antiviral assay in human PBMCs infected with HIV-1 clinical isolates. It is filed as cell-based. Conditions: HIV-1, human PBMCs; EC95 x human plasma shift.
A further data set concerns SHIV-SF162P3. In words: Antiviral assay in rhesus PBMCs acutely infected with SHIV.SF162P3. It is filed as cell-based, rhesus macaque. The note with it: for SHIV Replication (Mean): representative assay, N 3. The method, then: Freshly isolated PBMCs from 3 male Indian rhesus macaque (Macaca mulatta) donors were obtained from Human Cells Biosciences. Rhesus PBMCs were cultured in RPMI-1640 cell culture media (Life Technologies) supplemented with 10% heat-inactivated FBS (Hyclone), 2 mM glutamine, and 100 units/mL penicillin plus 100 μg/mL streptomycin (complete RPMI). Prior to their use in antiviral assays, PBMCs from 3 independent donors were pooled and activated at a density of 3 × 10^6 cells per mL for 72 hours at 37°C by addition of 1 μg/mL PHA (Sigma-Aldrich) and 50 units/mL recombinant human IL-2 (Roche Diagnostics).
Briefly, PHA/IL-2–stimulated rhesus PBMCs were infected in bulk culture with SHIV.SF162P3 at a concentration of 130 pg p27 equivalent per million PBMCs. Cells were maintained in suspension by gently rocking the cultures mixed with virus inoculum for 3 hours at 37°C. Cells were then pelleted by centrifugation at 500g for 5 minutes, washed twice with complete RPMI to remove any unadsorbed virus, and seeded into 96-well plates at a cell density of 2 × 10^5 cells per well in 100 μL. […] Cultures were incubated in a 5% CO2 incubator at 37°C for 7 days. The cell-free supernatants derived from the PBMC cultures were harvested 7 days after infection, and the amount of SHIV present was quantified using a SIV p27 antigen capture ELISA assay (item 5436, Advanced Bioscience Laboratories Inc.) performed according to the manufacturer’s protocol.

Data set [2] has as its system HIV-1. In words: Antiviral assay against HIV-1 in MT-4 cells. It is filed as cell-based. The note with it: HIV-1IIIb in MT-4 cells.
The nature of data set [3]: Safety and tolerability of subcutaneous LEN dosing. It is filed as in vivo, rhesus macaques. The source says:
Injections at all dose levels were generally well tolerated without notable clinical observations. […] Grade 1 edema and/or erythema was observed across multiple time points and animals from all 5 dose groups and was fully resolved by week 11 after dose.
All animals were housed at Bioqual Inc. For the in vivo SHIV stock titration study, 8 untreated outbred Indian-origin male rhesus macaques aged 3–5 years were challenged intrarectally per round for a total of 5 challenge rounds using increasing virus doses ranging from 0.625 to 100 TCID50, with the 100 TCID50 round performed twice for increased resolution (Supplemental Table 2). Plasma viral load was measured to confirm the infection status. […] Injection sites were monitored daily by veterinary staff for 2 weeks and then weekly through the end of study. On week 7, 11 animals were challenged by the intrarectal route with 1 mL RPMI containing 100 TCID50 SHIV-SF162P3. Whole blood was collected and processed into plasma and PBMCs as necessary for the assessment of routine hematology and clinical chemistry, viral load analysis, serology, and the bioanalysis of drug levels. Animals were considered protected if they remained SHIV negative by a plasma PCR assay and seronegative by enzyme immunoassay through week 10 after challenge.

The test system of data set [4] is HIV-1. Set-up: method as in ref 11, 12 = [11]; PMID 32612233; doi:10.1038/s41586-020-2443-1; 11 Link JO et al Clinical targeting of HIV capsid protein with a long-acting small molecule Nature 2020 584 7822 614 618 10.1038/s41586-020-2443-1 32612233 PMC8188729 || [12]; 12 Yant SR, et al. GS-6207, A potent and selective first-in-class long-acting HIV-1 capsid inhibitor. Conference on Retroviruses and Opportunistic Infections. https://www.croiconference.org/abstract/g. Conditions: HIV-1 in MT-4 cells; cited from earlier work.

“And” between values parts separate entries of the source, which are not always exact repeats. Equal values may be shown once. Where only a bound is given, the exact number is not on record here.

Consider `CC(C)(C#Cc1ccc(-c2ccc(Cl)c3c(NS(C)(=O)=O)nn(CC(F)(F)F)c23)c([C@H](Cc2cc(F)cc(F)c2)NC(=O)Cn2nc(C(F)(F)F)c3c2C(F)(F)[C@@H]2C[C@H]32)n1)S(C)(=O)=O` [LEN, Lenacapavir], for which the “paEC95 (protein-adjusted EC95)” value with HIV-1 [1] is 2.01 nM and 2.01 ± 1.22 nM; in the data set with SHIV-SF162P3 (SHIV, rhesus PBMCs, EC95 x rhesus plasma shift), 8.80 nM and 8.8 nM and 8.80 ± 3.69^E nM. Moreover, the “SHIV Replication (Mean)” value in the data set on SHIV-SF162P3 (LEN 0.011 nM) turned out to be 98; with SHIV-SF162P3 (LEN 0.034 nM) it was 91; with SHIV-SF162P3 (LEN 0.103 nM) it was 99; in the data set with SHIV-SF162P3 (LEN 0.309 nM), 60; in the data set with SHIV-SF162P3 (LEN 0.926 nM) it was 18; in the data set with SHIV-SF162P3 (LEN 2.778 nM), 1. Besides, the “SHIV Replication (Mean)” value with SHIV-SF162P3 (LEN 8.333 nM) and with SHIV-SF162P3 (LEN 25 nM) was 0 throughout. Moreover, the EC50 was 0.39 ± 0.16 nM in the data set with SHIV-SF162P3 (Macaca mulatta, PBMC, 168 h) and 0.1 nM in the data set on HIV-1 [4]. Further, in the data set with SHIV-SF162P3 (SHIV-SF162P3, rhesus PBMCs, EC95 = EC50 x (95/5)^1/n), the EC95 was 0.91 nM and 0.91 ± 0.38 nM. For the same molecule, in the data set with HIV-1 [2], the “Hill coefficient (n)” value stood at 3.51 ± 0.31. In addition, in data set [3] (all dose levels tested, 5-75 mg/kg), the “safety and tolerability of subcutaneous injection” value was “safe and well tolerated”. The “time by which Grade 1 edema and/or erythema was fully resolved” value in data set [3] (male, outbred Indian-origin, rhesus monkey, in vivo) is no more than 11 week after dose. For the same molecule, the Hematology analyses entry in data set [3] (rhesus monkey, in vivo) is “no abnormal values”.
